In patent publication US20230151003A1, “COMPOUNDS AND METHODS OF USE” (Exelixis, Inc., priority 2020, published 2023):

What was measured:
Assay type in all cases: cell-based
KDR = KDR (Homo sapiens, UniProt P35968); experiment: KDR autophosphorylation ELISA in HUVEC cells; design: endogenous in cells; host or cells: HUVEC (Lonza #C2519A); conditions: Table 3 Cellular Activities, VEGF165-stimulated, phospho-KDR ELISA
Protocol: Human umbilical vein endothelial cells or HUVEC (Lonza #C2519A) were seeded at 2×10^4 cells/well onto 96-well plates (Corning #3904), in EGM-2 growth medium (Lonza #CC-3162) containing 1% Penicillin Streptomycin (Thermo Fisher #15140-122). HUVEC cells were incubated at 37° C., 5% CO2 for 24 h and then starved for 24 h in serum-free EBM-2 basal medium (Lonza #CC-3156) containing 1% Penicillin Streptomycin. Test compounds were serially diluted to produce an 8-point dose curve in fresh serum-free medium to a final concentration of 0.3% DMSO (vehicle) and added to the cells and incubated for 1 h. Cells were then stimulated with 100 ng/mL recombinant human VEGF165 (R&D Systems #293-VE-500) for 5 min, washed with cold PBS, and immediately lysed with 130 μL of cold 1× lysis buffer [20 mM Tris, 137 mM sodium chloride, 2 mM EDTA, 10% glycerol, 1% NP-40 alternative, 1 mM activated sodium orthovanadate, 1 mM PefaBloc SC (Sigma-Aldrich #11429868001), protease/phosphatase inhibitor tablet (Thermo Fisher #A32959)]. Lysates were collected and 100 μL/well added into the human phospho-KDR DuoSet IC ELISA (R&D Systems #DYC1766-2). Assay was performed according to manufacturer's instructions and sample phospho-KDR concentrations were extrapolated using human phospho-KDR control (R&D Systems #841421) as a standard. Positive control wells (100% activity) contained VEGF165-stimulated, DMSO-treated cell lysates. Negative control wells (0% activity) contained non-stimulated cell lysates. IC50 values were calculated by nonlinear regression analysis using a 4-parameter logistic curve fit in ActivityBase XE (IDBS).

Met = Met (Homo sapiens, UniProt P08581); experiment: Met autophosphorylation ELISA in PC-3 cells; design: endogenous in cells; host or cells: PC-3 prostate cancer cells (ATCC #CRL-1435); conditions: Table 3 Cellular Activities, HGF-stimulated, phospho-Met ELISA, read-out: c-Met IC50
Protocol: PC-3 prostate cancer cells (ATCC #CRL-1435) were seeded at 4×10^4 cells/well onto 24-well plates (Greiner #662165), in DMEM (Thermo Fisher #11995-040) containing 10% FBS (Thermo Fisher #26140-079), 1% MEM NEAA (Thermo Fisher #11140-050), 1% GlutaMax (Thermo Fisher #35050-061), and 1% Penicillin Streptomycin (Thermo Fisher #15140-122). PC-3 cells were incubated at 37° C., 5% CO2 for 24 h and then starved for 3 h in serum-free medium. Test compounds were serially diluted to produce an 8-point dose curve in fresh serum-free medium to a final concentration of 0.3% DMSO (vehicle) and added to the cells and incubated for 1 h. Cells were then stimulated with 100 ng/mL recombinant human HGF (R&D Systems #294-HG-250) for 10 min, washed with cold PBS, and immediately lysed with 130 μL of cold 1× lysis buffer [20 mM Tris, 137 mM sodium chloride, 2 mM EDTA, 10% glycerol, 1% NP-40 alternative, 1 mM activated sodium orthovanadate, 1 mM PefaBloc SC (Sigma-Aldrich #11429868001), protease/phosphatase inhibitor tablet (Thermo Fisher #A32959)]. Lysates were clarified by centrifugation and 100 μL/well added into the PathScan phospho-Met (panTyr) Sandwich ELISA (Cell Signaling Technology #7333). Assay was performed according to manufacturer's instructions. Positive control wells (100% activity) contained HGF-stimulated, DMSO-treated cell lysates. Negative control wells (0% activity) contained HGF-stimulated, reference inhibitor-treated cell lysates. IC50 values were calculated by nonlinear regression analysis using a 4-parameter logistic curve fit in ActivityBase XE (IDBS).

Mer = molecular target: T1, Mer (Homo sapiens, UniProt Q12866); experiment: Mer autophosphorylation ELISA in transient transfected 293A cells; conditions: Table 3 Cellular Activities; MERTK-transfected 293A cells, phospho-Mer ELISA
T1 construct: host or cells: 293A cells (Thermo Fisher #R70507)
T1 sequence (Q12866 21-999): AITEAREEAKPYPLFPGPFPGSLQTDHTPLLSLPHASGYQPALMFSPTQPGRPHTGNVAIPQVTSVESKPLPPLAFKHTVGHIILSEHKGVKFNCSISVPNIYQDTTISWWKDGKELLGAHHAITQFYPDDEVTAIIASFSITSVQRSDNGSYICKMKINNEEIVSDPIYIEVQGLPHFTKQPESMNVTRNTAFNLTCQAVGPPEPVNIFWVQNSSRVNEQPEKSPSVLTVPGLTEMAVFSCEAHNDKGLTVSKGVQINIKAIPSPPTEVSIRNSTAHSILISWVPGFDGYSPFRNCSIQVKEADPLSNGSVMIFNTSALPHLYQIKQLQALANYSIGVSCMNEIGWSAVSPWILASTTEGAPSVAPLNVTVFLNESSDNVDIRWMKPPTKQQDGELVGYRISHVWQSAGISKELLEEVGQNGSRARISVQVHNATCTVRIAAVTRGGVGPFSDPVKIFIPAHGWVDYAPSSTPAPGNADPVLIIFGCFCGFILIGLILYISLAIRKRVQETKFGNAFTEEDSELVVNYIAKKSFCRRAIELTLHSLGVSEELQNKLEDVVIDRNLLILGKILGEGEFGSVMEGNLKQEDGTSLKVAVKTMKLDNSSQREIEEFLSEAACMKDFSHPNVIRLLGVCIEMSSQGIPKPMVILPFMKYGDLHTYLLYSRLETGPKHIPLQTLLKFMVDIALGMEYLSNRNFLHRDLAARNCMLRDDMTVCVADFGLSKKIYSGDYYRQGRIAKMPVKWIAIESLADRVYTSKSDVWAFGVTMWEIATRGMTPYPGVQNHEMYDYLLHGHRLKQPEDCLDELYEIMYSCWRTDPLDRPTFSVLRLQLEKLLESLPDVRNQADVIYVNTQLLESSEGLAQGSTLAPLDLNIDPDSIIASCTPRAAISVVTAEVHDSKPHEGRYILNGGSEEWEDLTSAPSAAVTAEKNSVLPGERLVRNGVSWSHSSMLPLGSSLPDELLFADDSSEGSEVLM
Protocol: 293A cells (Thermo Fisher #R70507) were seeded at 1.5×10^6 cells/well onto 100 mm dish (Greiner #664169), in DMEM (Thermo Fisher #11995-040) containing 10% FBS (Thermo Fisher #26140-079), 1% MEM NEAA (Thermo Fisher #11140-050), 1% GlutaMax (Thermo Fisher #35050-061), and 1% Penicillin Streptomycin (Thermo Fisher #15140-122). 293A cells were incubated at 37° C., 5% CO2 for 24 h and then transfected with 6μg MERTK DNA (Genecopoeia #EX-Z8208-M02) using TransIT LT1 transfection reagent (Mirus-Bio #MIR2305). After 24 h incubation, the transfected 293A cells were seeded at 1×10^5 cells/well onto 96-well plates (Corning #3904) in DMEM growth medium overnight. Test compounds were serially diluted to produce an 8-point dose curve in fresh serum-free medium to a final concentration of 0.3% DMSO (vehicle) and added to the cells and incubated for 1 h. Cells were then immediately lysed with 150 μL of cold 1× lysis buffer […], 137 mM sodium chloride, 2 mM EDTA, 10% glycerol, 1% NP-40 alternative, 1 mM activated sodium orthovanadate, 1 mM PefaBloc SC (Sigma-Aldrich #11429868001), protease/phosphatase inhibitor tablet (Thermo Fisher #A32959)]. Lysates were clarified by centrifugation and 50 μL/well added into the human phospho-Mer DuoSet IC ELISA (R&D Systems #DYC2579-2). Assay was performed according to manufacturer's instructions and sample phospho-Mer concentrations were extrapolated using human phospho-Mer control (R&D Systems #841793) as a standard. Positive control wells (100% activity) contained DMSO-treated cell lysates. Negative control wells (0% activity) contained reference inhibitor-treated cell lysates. IC50 values were calculated by nonlinear regression analysis using a 4-parameter logistic curve fit in ActivityBase XE (IDBS).

Sequence of KDR (P35968 20-1356): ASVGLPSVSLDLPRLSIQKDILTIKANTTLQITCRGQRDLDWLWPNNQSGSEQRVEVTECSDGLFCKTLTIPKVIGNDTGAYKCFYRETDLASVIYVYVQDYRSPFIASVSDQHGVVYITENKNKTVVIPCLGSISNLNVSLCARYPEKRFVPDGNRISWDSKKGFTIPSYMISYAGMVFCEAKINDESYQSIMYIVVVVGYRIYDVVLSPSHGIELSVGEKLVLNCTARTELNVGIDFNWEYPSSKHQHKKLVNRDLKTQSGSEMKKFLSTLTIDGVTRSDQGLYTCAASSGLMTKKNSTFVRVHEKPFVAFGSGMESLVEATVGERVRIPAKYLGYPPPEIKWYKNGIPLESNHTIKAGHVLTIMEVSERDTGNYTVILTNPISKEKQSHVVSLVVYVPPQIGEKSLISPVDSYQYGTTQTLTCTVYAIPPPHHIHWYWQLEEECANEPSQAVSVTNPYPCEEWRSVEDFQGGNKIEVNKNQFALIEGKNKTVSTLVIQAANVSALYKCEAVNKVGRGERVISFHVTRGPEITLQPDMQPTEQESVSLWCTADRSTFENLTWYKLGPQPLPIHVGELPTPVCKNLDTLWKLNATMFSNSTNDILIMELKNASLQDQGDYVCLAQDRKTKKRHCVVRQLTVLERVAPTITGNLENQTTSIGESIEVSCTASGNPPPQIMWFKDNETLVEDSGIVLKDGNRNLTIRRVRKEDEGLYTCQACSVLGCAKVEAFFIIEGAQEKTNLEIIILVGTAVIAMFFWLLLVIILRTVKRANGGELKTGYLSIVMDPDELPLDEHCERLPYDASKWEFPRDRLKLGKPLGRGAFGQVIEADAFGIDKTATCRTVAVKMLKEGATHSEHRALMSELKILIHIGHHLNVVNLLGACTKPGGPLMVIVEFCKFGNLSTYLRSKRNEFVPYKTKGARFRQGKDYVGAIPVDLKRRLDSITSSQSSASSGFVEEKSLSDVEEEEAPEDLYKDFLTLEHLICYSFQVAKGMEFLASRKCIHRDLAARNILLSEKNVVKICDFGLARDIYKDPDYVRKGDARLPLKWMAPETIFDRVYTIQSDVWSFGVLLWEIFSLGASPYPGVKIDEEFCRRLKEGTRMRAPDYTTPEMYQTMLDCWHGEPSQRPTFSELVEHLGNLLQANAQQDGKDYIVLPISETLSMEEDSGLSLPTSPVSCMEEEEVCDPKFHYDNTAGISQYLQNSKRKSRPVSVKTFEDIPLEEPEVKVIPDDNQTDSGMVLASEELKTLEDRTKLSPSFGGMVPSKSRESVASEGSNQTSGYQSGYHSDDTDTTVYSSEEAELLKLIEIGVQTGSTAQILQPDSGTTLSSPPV
Sequence of Met (P08581 25-1390): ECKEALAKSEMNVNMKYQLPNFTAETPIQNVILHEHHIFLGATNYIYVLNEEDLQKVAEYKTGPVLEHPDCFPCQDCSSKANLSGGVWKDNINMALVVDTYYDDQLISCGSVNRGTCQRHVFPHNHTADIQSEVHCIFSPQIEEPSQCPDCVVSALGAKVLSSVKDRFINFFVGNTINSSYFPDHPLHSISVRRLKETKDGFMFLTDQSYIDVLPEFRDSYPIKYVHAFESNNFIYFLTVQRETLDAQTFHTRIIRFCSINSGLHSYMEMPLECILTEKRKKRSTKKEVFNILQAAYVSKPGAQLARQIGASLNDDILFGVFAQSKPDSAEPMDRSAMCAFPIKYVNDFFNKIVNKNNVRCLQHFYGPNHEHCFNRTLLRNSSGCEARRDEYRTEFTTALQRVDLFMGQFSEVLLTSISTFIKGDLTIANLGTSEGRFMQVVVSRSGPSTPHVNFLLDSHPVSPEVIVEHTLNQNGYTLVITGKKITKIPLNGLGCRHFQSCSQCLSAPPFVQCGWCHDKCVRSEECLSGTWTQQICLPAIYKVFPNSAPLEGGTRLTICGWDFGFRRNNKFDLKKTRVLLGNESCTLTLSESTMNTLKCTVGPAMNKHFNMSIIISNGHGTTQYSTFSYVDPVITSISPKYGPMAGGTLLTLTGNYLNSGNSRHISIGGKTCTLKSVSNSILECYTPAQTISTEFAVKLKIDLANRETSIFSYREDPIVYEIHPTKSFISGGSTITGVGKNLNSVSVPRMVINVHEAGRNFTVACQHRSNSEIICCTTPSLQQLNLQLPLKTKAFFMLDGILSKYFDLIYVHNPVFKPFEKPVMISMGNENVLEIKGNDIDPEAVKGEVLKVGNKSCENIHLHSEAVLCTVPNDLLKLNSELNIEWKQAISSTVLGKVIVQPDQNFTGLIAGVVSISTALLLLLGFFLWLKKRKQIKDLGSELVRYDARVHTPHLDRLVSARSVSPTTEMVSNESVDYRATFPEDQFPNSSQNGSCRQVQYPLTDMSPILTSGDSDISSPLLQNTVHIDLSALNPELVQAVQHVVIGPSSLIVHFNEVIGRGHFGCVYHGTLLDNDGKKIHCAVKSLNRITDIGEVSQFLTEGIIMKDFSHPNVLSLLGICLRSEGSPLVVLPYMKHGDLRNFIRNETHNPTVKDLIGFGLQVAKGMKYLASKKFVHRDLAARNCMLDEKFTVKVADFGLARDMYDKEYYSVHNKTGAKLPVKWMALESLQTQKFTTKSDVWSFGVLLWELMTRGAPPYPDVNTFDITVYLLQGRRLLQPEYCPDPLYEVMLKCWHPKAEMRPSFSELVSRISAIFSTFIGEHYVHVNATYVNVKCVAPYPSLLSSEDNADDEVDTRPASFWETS

IC50 (KDR) | IC50 (Met) | IC50 (Mer) | Structure (SMILES)
300 to 1000 nM | 300 to 1000 nM | 300 to 1000 nM | COCCOc1cnc2c(Oc3ccc(NC(=O)c4c(C)n(C)c(C)c(-c5coc6ccccc56)c4=O)cc3F)ccnc2c1 [Compound 265, 5-(1-Benzofuran-3-yl)-N-[3-fluoro-4-[[7-(2-methoxyethoxy)-1,5-naphthyridin-4-yl]oxy]phenyl]-1,2,6-trimethyl-4-oxopyridine-3-carboxamide]
300 to 1000 nM | ≤ 100 nM | ≤ 100 nM | COc1cnc2c(Oc3ccc(NC(=O)c4c(C)n(C)c(C)c(-c5ccco5)c4=O)cc3F)ccnc2c1 [Compound 162, N-[3-Fluoro-4-[(7-methoxy-1,5-naphthyridin-4-yl)oxy]phenyl]-5-(furan-2-yl)-1,2,6-trimethyl-4-oxopyridine-3-carboxamide]
≤ 100 nM | ≤ 100 nM | ≤ 100 nM | COc1cc2nccc(Oc3ccc(NC(=O)c4c(C)ncc(-c5ccoc5)c4O)cc3F)c2nc1OC [Compound 122, N-[4-[(6,7-Dimethoxy-1,5-naphthyridin-4-yl)oxy]-3-fluorophenyl]-5-(furan-3-yl)-4-hydroxy-2-methylpyridine-3-carboxamide]
≤ 100 nM | ≤ 100 nM | ≤ 100 nM | COCc1nc(C)c(-c2ncccc2C)c(O)c1C(=O)Nc1ccc(Oc2ccnc3cc(OC)c(OC)nc23)c(F)c1 [Compound 196, N-[4-[(6,7-Dimethoxy-1,5-naphthyridin-4-yl)oxy]-3-fluorophenyl]-4-hydroxy-2-(methoxymethyl)-6-methyl-5-(3-methylpyridin-2-yl)pyridine-3-carboxamide]
300 to 1000 nM | ≤ 100 nM | ≤ 100 nM | COc1cc2nccc(Oc3ccc(NC(=O)c4ccc(C)n(-c5ccnc(OC(C)C)c5)c4=O)cc3F)c2nc1OC [Compound 225, N-[4-[(6,7-Dimethoxy-1,5-naphthyridin-4-yl)oxy]-3-fluorophenyl]-6-methyl-2-oxo-1-(2-propan-2-yloxypyridin-4-yl)pyridine-3-carboxamide]
300 to 1000 nM | ≤ 100 nM | ≤ 100 nM | COc1cc2nccc(Oc3ccc(NC(=O)c4c5n(cc(-c6ccsc6)c4=O)CCOC5)cc3)c2nc1OC [Compound 301, N-[4-[(6,7-Dimethoxy-1,5-naphthyridin-4-yl)oxy]phenyl]-8-oxo-7-thiophen-3-yl-3,4-dihydro-1H-pyrido[2,1-c][1,4]oxazine-9-carboxamide]
300 to 1000 nM | ≤ 100 nM | ≤ 100 nM | COc1cc2nccc(Oc3ccc(NC(=O)c4c(C)n(CC(F)F)cc(-c5ccco5)c4=O)cc3F)c2nc1OC [Compound 275, 1-(2,2-Difluoroethyl)-N-[4-[(6,7-dimethoxy-1,5-naphthyridin-4-yl)oxy]-3-fluorophenyl]-5-(furan-2-yl)-2-methyl-4-oxopyridine-3-carboxamide]
≤ 100 nM | ≤ 100 nM | ≤ 100 nM | COCc1nc(C)c(-c2ccnc(C)c2)c(O)c1C(=O)Nc1ccc(Oc2ccnc3cc(OC)c(OC)nc23)c(F)c1 [Compound 198, N-[4-[(6,7-Dimethoxy-1,5-naphthyridin-4-yl)oxy]-3-fluorophenyl]-4-hydroxy-2-(methoxymethyl)-6-methyl-5-(2-methylpyridin-4-yl)pyridine-3-carboxamide]
≤ 100 nM | ≤ 100 nM | ≤ 100 nM | COCc1nc(C)c(-c2cccc(C)n2)c(O)c1C(=O)Nc1ccc(Oc2ccnc3cc(OC)c(OC)nc23)c(F)c1 [Compound 197, N-[4-[(6,7-Dimethoxy-1,5-naphthyridin-4-yl)oxy]-3-fluorophenyl]-4-hydroxy-2-(methoxymethyl)-6-methyl-5-(6-methylpyridin-2-yl)pyridine-3-carboxamide]
100 to 300 nM | ≤ 100 nM | ≤ 100 nM | COc1cc2nccc(Oc3ccc(NC(=O)c4c5n(cc(-c6ccsc6)c4=O)CCOC5)cc3F)c2nc1OC [Compound 300, N-[4-[(6,7-Dimethoxy-1,5-naphthyridin-4-yl)oxy]-3-fluorophenyl]-8-oxo-7-thiophen-3-yl-3,4-dihydro-1H-pyrido[2,1-c][1,4]oxazine-9-carboxamide]
≤ 100 nM | 100 to 300 nM | ≤ 100 nM | COc1cc2nccc(Oc3ccc(NC(=O)c4c(C)ncc(-c5ccc(C=O)o5)c4O)cc3F)c2nc1OC [Compound 121, N-[4-[(6,7-Dimethoxy-1,5-naphthyridin-4-yl)oxy]-3-fluorophenyl]-5-(5-formylfuran-2-yl)-4-hydroxy-2-methylpyridine-3-carboxamide]
